Test results taken from publication PMC4411898, “Impact of kinesin Eg5 inhibition by 3,4-dihydropyrimidin-2(1H)-one derivatives on various breast cancer cell features” (BMC Cancer, 2015).
pIC50: −log10 of the molar value. Where two headings read alike, the source gives them in different places.

What was measured:
[1] = tested on: Fibroblasts (primary culture from healthy human dental pulp)
Description: MCF-7 cell line and primary culture of connective tissue cells were provided by the Laboratory of Morphology, University of Brasília (Brasília, BR). MDA-MB-231 cells were purchased from Rio de Janeiro Cell Bank (RJCB - Rio de Janeiro, BR). Cell line characterization and authentication was conducted by RJCB using short tandem repeat profiling. Primary culture cells were taken from healthy human dental pulp predominantly consisting of fibroblasts and were used as normal control cells. MCF-7 cells and fibroblasts were grown in complete DMEM and maintained at 37°C with 5% CO2. MDA-MB-231 cells were grown in Leibovitz L15 medium at 37°C without CO2. Culture media were supplemented with 10% fetal bovine serum and 25 μg/mL of gentamicin.
Cytotoxicity was determined using 3-(4,5-dimethylthiazol-2-yl)-2,5-diphenylterazolium bromide (MTT) according to the manufacturer’s instructions. Absorbance readings were measured by a spectrophotometer. Cell viability was normalized to control (vehicle only).

MCF-7 cells [2] = assay: MTT cell viability assay, MCF-7; format: cell-based, human; conditions: for pIC50: Homo sapiens, read-out: IC50 MCF-7
Description: (§1) Absorbance readings were measured by a spectrophotometer. Cell viability was normalized to control (vehicle only).

MCF-7 cells [3] = assay: α-tubulin immunostaining, spindle formation; format: cell-based, human; conditions: for Monoastral Spindle (%) 24 h / Bipolar Spindle (%) 24 h / Bipolar Spindle (%) 48 h / Monoastral Spindle (%) 48 h: n = 300 dividing cells; for Monoastral Spindle (%) 24 h: monastrol 0.1 mM; for Bipolar Spindle (%) 24 h / Bipolar Spindle (%) 48 h / Monoastral Spindle (%) 48 h: concentrations as E14; for Bipolar Spindle (%) 48 h / Monoastral Spindle (%) 48 h: MCF-7, 48 h
Description: Aliquots of 7 × 10^4 MCF-7 cells were seeded onto 12 mm round glass coverslips placed in the base of each well of a 24-well plate. After adhesion, cells were treated for 24 and 48 h with the pre-selected compounds at their maximum non-cytotoxic concentrations to normal cells or incubated with culture medium only for the same duration (negative control). Cells were washed with PBS, fixed with 3.7% formaldehyde, permeabilized with 0.1% Triton X-100 and blocked in PBS supplemented with 1% skimmed milk, 2.5% bovine serum albumin (BSA) and 8% fetal bovine serum (FBS) at room temperature. Cells were incubated overnight with mouse anti-α-tubulin antibody (1:500) at 4°C, followed by incubation with a secondary antibody: Alexa Fluor 488 rabbit anti-mouse IgG (1:400), for 1 hour at 37°C. Nuclei were stained with 300 nM DAPI. The coverslips were mounted with ProLong Gold Antifade and specimens observed under a laser scanning confocal microscope.
Table S1. Quantification of monopolar spindles occurred as a result of treatment with DHPM derivatives. MCF-7 control cells or cells treated for 24 or 48 h with 4m (1 mM), […]
antibody. The percentage of dividing cells showing presence of monoastral and bipolar spinles formation determined (n = 300).
Experimental Group Monoastral Spindle (%) Bipolar Spindle (%)

MCF-7 cells [4] = assay: CD44+/CD24- expression analysis, MCF-7; format: cell-based, human; conditions: 24 h; for CD44-/CD24- subpopulation, MCF-7 (mean ± SEM): 4m 1.0 mM, 4bt 0.8 mM, 4p 0.4 mM, 4bc 1.0 mM, 4x 0.8 mM, monastrol 1.0 mM; for CD44+/CD24+ subpopulation, MCF-7 (mean ± SEM) / CD44-/CD24+ subpopulation, MCF-7 (mean ± SEM) / CD44+/CD24- subpopulation, MCF-7 (mean ± SEM): concentrations as E28; for CD44+/CD24- subpopulation, MCF-7 (mean ± SEM): control 0.38 ± 0.18
Description: (§2) For proliferation assays, cells were treated with IC50 concentrations of each compound. Adherent and floating cells were harvested at the same tube and pelleted by centrifugation at 300 g for 5 minutes and stained. Data acquisition of these two fractions put together was performed on a FACSCalibur flow cytometer using CellQuest software and analysed using the FloJo Software. Expression level of CD44 and CD24 in treated and control MCF-7 or MDA-MB-231 cells was measured after 24 h of treatment.

MDA-MB-231 cells [5] = assay: MTT cell viability assay, MDA-MB-231; format: cell-based, human; conditions: for pIC50: Homo sapiens, read-out: IC50 MDA-MB-231
Description: as §1

MDA-MB-231 cells [6] = assay: CD44+/CD24- expression analysis, MDA-MB-231; format: cell-based, human; conditions: 24 h; for CD44-/CD24- subpopulation, MDA-MB-231 (mean ± SEM): 4m 1.0 mM, 4bt 0.8 mM, 4p 0.4 mM, 4bc 1.0 mM, 4x 0.8 mM, monastrol 1.0 mM; for CD44+/CD24+ subpopulation, MDA-MB-231 (mean ± SEM): control 1.507 ± 0.47
Description: as §2

MDA-MB-231 cells [7] = assay: Apoptosis and necrosis assay (Annexin-V/PI flow cytometry), MDA-MB-231; format: cell-based, human; conditions: 72 h; 4m 1.0 mM, 4bt 0.8 mM, 4p 0.4 mM, 4bc 1.0 mM, 4x 0.8 mM
Description: (§3) For proliferation assays, cells were treated with IC50 concentrations of each compound. Adherent and floating cells were harvested at the same tube and pelleted by centrifugation at 300 g for 5 minutes and stained. Data acquisition of these two fractions put together was performed on a FACSCalibur flow cytometer using CellQuest software and analysed using the FloJo Software. Untreated control cells and DHPMs-treated for 72 h cell samples were stained with Annexin-V-FITC or Annexin-V-Alexa Fluor® 680 and propidium iodide according to the manufacturer’s instructions.

MCF-7 cells [8] = assay: Apoptosis and necrosis assay (Annexin-V/PI flow cytometry), MCF-7; format: cell-based, human; conditions: 72 h; 4m 1.0 mM, 4bt 0.8 mM, 4p 0.4 mM, 4bc 1.0 mM, 4x 0.8 mM
Description: as §3

MCF-7 cells [9] = assay: Cell cycle analysis (PI), MCF-7; format: cell-based, human; conditions: 4m 1 mM, 4bt 0.8 mM, 4p 0.4 mM, 4bc 1.0 mM, 4x 0.8 mM
Description: For proliferation assays, cells were treated with IC50 concentrations of each compound. Adherent and floating cells were harvested at the same tube and pelleted by centrifugation at 300 g for 5 minutes and stained. Data acquisition of these two fractions put together was performed on a FACSCalibur flow cytometer using CellQuest software and analysed using the FloJo Software. Control and DHPM-treated cells were harvested at 24, 48 and 72 h, resuspended in ice-cold PBS and fixed with 70% ethanol on ice. Cells were then washed with PBS, harvested and incubated with propidium iodide solution (0.1% Triton X-100, 10 μg/mL propidium iodide, 100 μg/mL DNase free RNase) for 10 min at 37°C. For analysis of cell populations in each cell cycle phase, the sub-G1 picks were excluded and the plots were generated by cell cycle platform data analysis by the FlowJo Software.

MCF-7 cells [10] = assay: Morphological alterations under inverted light microscope, MCF-7; format: cell-based, human; conditions: 72 h, maximum non-cytotoxic concentration to normal cells
Description: Figure 2 DHPM derivatives cause severe morphological alterations on breast cancer cells. MCF-7 and MDA-MB-231 cells were treated with the maximum non-cytotoxic concentration to normal cells for 72 h and morphological alterations analyzed under an inverted light microscope. Cells with elongated morphology, adherent to the surface and normal size are shown by arrows. Cells with size reduction, absence of focal adhesion points, rounded morphology and detached from the surface where they had been seeded are shown by arrowheads.

HUVEC cells = assay: HUVEC tube formation assay; format: cell-based, human; conditions: 11 h; 30 μM, IC50 or 300 μM, mainly 300 μM
Description: The anti-angiogenic potential of DHPMs was tested using an in vitro Angiogenesis Assay Kit according to the manufacturer’s instructions. […] These plates were incubated for 11 hours at 37°C, in 5% CO2. Wells were subsequently photographed using an inverted light microscope at 20x magnification and tube formation analyzed. Seven fields per group of 3 independent experiments were quantified by pattern recognition according to manufacturer’s instructions.

[11] = MCF-7, 24 h, 4m 1.0 mM, 4bt 0.8 mM, 4p 0.4 mM, 4bc 1.0 mM, 4x 0.8 mM
[12] = all concentrations tested 100 μM – 1.00 mM, 72 h

Row | Structure (SMILES) | Monoastral Spindle (%) 24 h (MCF-7 cells [3]; [11]) [%] | Bipolar Spindle (%) 24 h (MCF-7 cells [3]; MCF-7, 24 h) [%] | Bipolar Spindle (%) 48 h (MCF-7 cells [3]) [%] | Monoastral Spindle (%) 48 h (MCF-7 cells [3]) [%] | CD44-/CD24- subpopulation, MCF-7 (mean ± SEM) (MCF-7 cells [4]) [%] | CD44+/CD24+ subpopulation, MCF-7 (mean ± SEM) (MCF-7 cells [4]) [%] | CD44-/CD24+ subpopulation, MCF-7 (mean ± SEM) (MCF-7 cells [4]) [%] | CD44+/CD24- subpopulation, MCF-7 (mean ± SEM) (MCF-7 cells [4]) [%] | CD44-/CD24- subpopulation, MDA-MB-231 (mean ± SEM) (MDA-MB-231 cells [6]) [%] | CD44-/CD24+ subpopulation, MDA-MB-231 (mean ± SEM) (MDA-MB-231 cells [6]; concentrations as E32) [%] | CD44+/CD24+ subpopulation, MDA-MB-231 (mean ± SEM) (MDA-MB-231 cells [6]; concentrations as E32) [%] | also measured
1 | CCOC(=O)C1=C(C)NC(=S)NC1c1cccc(O)c1 (stereo not shown) [Monastrol, reference compound] | 97.66 | 2.33 | 8 | 92 | 1.64 ± 0.43 | 29.53 ± 5.30 | 68.56 ± 5.93 | 0.2400 ± 0.20 | 0.00 ± 0.003 | 0.007 ± 0.003 | 15.56 ± 6.96 | Maximum non-cytotoxic concentration to normal cells ([1]; human, 72 h): 1.0 mM; pIC50 (MCF-7 cells [2]; MCF7, 72 h treatment, MTT): 3.96; pIC50 (MDA-MB-231 cells [5]; MDA-MB-231, 72 h treatment, MTT): 3.94; CD44+/CD24- subpopulation, MDA-MB-231 (mean ± SEM) (MDA-MB-231 cells [6]; concentrations as E32, untreated control 98.45 ± 0.47): 84.41 ± 6.97%
2 | CC1(C)CC(=O)C2=C(C1)NC(=S)NC2c1cccc(O)c1 (stereo not shown) [Compound 4bt, Dimethylenastron] | 99.35 | 0.65 | 20 | 80 | 3.09 ± 0.46 | 61.97 ± 19.91 | 34.92 ± 19.45 | 0.005 ± 0.005 | 0.01 ± 0.00 | 0.0 ± 0.0 | 52.14 ± 10.60 | Cell death by apoptosis, % of MDA-MB-231 cell population (MDA-MB-231 cells [7]): 83%; Cell death by apoptosis, % of MCF-7 cell population (MCF-7 cells [8]): 39%; Cell cycle effect, MCF-7, 48 h (MCF-7 cells [9]): decrease of cells in G2/M and an increase of cells in S phase; Morphological alterations, MCF-7 (MCF-7 cells [10]): produced the same results; Maximum non-cytotoxic concentration to normal cells ([1]; fibroblasts, 72 h treatment, MTT): 0.8 mM; pIC50 (MCF-7 cells [2]; MCF7, 72 h): 3.90; Effect on cell viability, MCF-7 (MCF-7 cells [2]; [12]): significant decrease in cell viability; Mitotic spindle / microtubule organization (α-tubulin immunostaining) (MCF-7 cells [3]; [11]): caused monoastral spindle formation; HUVEC tube formation (pattern recognition / morphology) (HUVEC cells): more pronounced anti-angiogenic morphological aspect; pIC50 (MDA-MB-231 cells [5]; MDA-MB-231, 72 h): 4.75; Effect on cell viability, MDA-MB-231 (MDA-MB-231 cells [5]; [12]): significant decrease in cell viability
